Values after ≈ are worked out from the molar mass of the structure shown. Active and inactive are the calls of the source. The rule behind the calls is not given here.
Columns and labels:
[1] = Metabolic stability in mouse kidney assessed as parent compound remaining measured after 4 hrs by UPLC-MS analysis; type: ADME, tissue-based; details: read-out: Stability
[2] = Metabolic stability in mouse lung assessed as parent compound remaining measured after 4 hrs by UPLC-MS analysis; type: ADME, tissue-based; details: mouse lung, read-out: Stability
[3] = Metabolic stability in mouse lung assessed as parent compound remaining measured after 1 hrs by UPLC-MS analysis; type: ADME, tissue-based; details: mouse lung, read-out: Stability
[4] = Metabolic stability in mouse kidney assessed as parent compound remaining measured after 1 hrs by UPLC-MS analysis; type: ADME, tissue-based; details: read-out: Stability
Escherichia coli [5] = test: Antibacterial activity against Escherichia coli ATCC 35218 infected in Swiss albino mouse model of Septicaemia infection assessed as log reduction in Septicaemia in blood at 1 mg/kg , iv preincubated for 4 hrs followed by bacterial infection and measured after 4 hrs post infection; type: functional; details: time 8 hrs
Escherichia coli [6] = test: Antibacterial activity against wild type Escherichia coli ATCC 35218 assessed as reduction in microbial growth incubated for 20 to 22 hrs by CLSI based analysis; type: functional; details: time 20-22 hrs
Escherichia coli [7] = test: Antibacterial activity against Escherichia coli ATCC 35218 harboring SbmA assessed as reduction in microbial growth incubated for 20 to 22 hrs by CLSI based analysis; type: functional; details: time 20-22 hrs
Klebsiella pneumoniae [8] = test: Antibacterial activity against wild type Klebsiella pneumoniae ATCC 13883 assessed as reduction in microbial growth incubated for 20 to 22 hrs by CLSI based analysis; type: functional; details: time 20-22 hrs
Klebsiella pneumoniae [9] = test: Antibacterial activity against Klebsiella pneumoniae ATCC 13883 harboring SbmA assessed as reduction in microbial growth incubated for 20 to 22 hrs by CLSI based analysis; type: functional; details: time 20-22 hrs
Acinetobacter baumannii [10] = test: Antibacterial activity against wild type Acinetobacter baumannii ATCC 19606 assessed as reduction in microbial growth incubated for 20 to 22 hrs by CLSI based analysis; type: functional; details: time 20-22 hrs
Escherichia coli [11] = test: Antibacterial activity against Escherichia coli ATCC 25922 infected in Swiss albino mouse thigh infection model at 10 mg/kg, iv measured after 1 hr; type: functional, organism-based
Klebsiella pneumoniae [12] = test: Antibacterial activity against Klebsiella pneumoniae ATCC 13883 infected in Swiss albino mouse thigh infection model at 10 mg/kg, iv measured after 1 hr; type: functional, organism-based
Klebsiella pneumoniae [13] = test: Antibacterial activity against Klebsiella pneumoniae ATCC 13883 infected in Swiss albino mouse model of neutropenic lung infection at 10 mg/kg, iv pretreated for 1 hr followed by bacterial infection and measured after 5 hr post infection; type: functional, organism-based; details: time 6.0 hrs
Escherichia coli [14] = test: Antibacterial activity against Escherichia coli ATCC 35218 assessed as reduction in microbial growth incubated for 20 to 22 hrs by CLSI based analysis; type: functional; details: time 20-22 hrs
Klebsiella pneumoniae [15] = test: Antibacterial activity against Klebsiella pneumoniae ATCC 13883 assessed as reduction in microbial growth incubated for 20 to 22 hrs by CLSI based analysis; type: functional; details: time 20-22 hrs
Acinetobacter baumannii [16] = test: Antibacterial activity against Acinetobacter baumannii ATCC 19606 assessed as reduction in microbial growth incubated for 20 to 22 hrs by CLSI based analysis; type: functional; details: time 20-22 hrs
Escherichia coli [17] = test: Antibacterial activity against Escherichia coli ATCC 35218 infected in Swiss albino mouse model of Septicaemia infection assessed as log reduction in Septicaemia in blood at 20 mg/kg , iv preincubated for 4 hrs followed by bacterial infection and measured after 4 hrs post infection; type: functional; details: time 8 hrs
Escherichia coli [18] = test: Antibacterial activity against […] assessed as bacterial growth inhibition incubated for 20 to 22 hrs by CLSI based analysis; type: functional; details: time 20-22 hrs
Escherichia coli [19] = test: Antibacterial activity against multidrug-resistant Escherichia coli BAA2469 assessed as bacterial growth inhibition incubated for 20 to 22 hrs by CLSI based analysis; type: functional; details: time 20-22 hrs
Escherichia coli [20] = test: Antibacterial activity against multidrug-resistant Escherichia coli MG1655 assessed as bacterial growth inhibition incubated for 20 to 22 hrs by CLSI based analysis; type: functional; details: time 20-22 hrs
Escherichia coli [21] = test: Antibacterial activity against multidrug-resistant Escherichia coli MG1655 harboring tolC mutant assessed as bacterial growth inhibition incubated for 20 to 22 hrs by CLSI based analysis; type: functional; details: time 20-22 hrs
Escherichia coli [22] = test: Antibacterial activity against multidrug-resistant Escherichia coli UT189 assessed as bacterial growth inhibition incubated for 20 to 22 hrs by CLSI based analysis; type: functional; details: time 20-22 hrs
Klebsiella pneumoniae [23] = test: Antibacterial activity against […] assessed as bacterial growth inhibition incubated for 20 to 22 hrs by CLSI based analysis; type: functional; details: time 20-22 hrs
Klebsiella pneumoniae [24] = test: Antibacterial activity against multidrug-resistant Klebsiella pneumoniae G199 assessed as bacterial growth inhibition incubated for 20 to 22 hrs by CLSI based analysis; type: functional; details: time 20-22 hrs
Klebsiella pneumoniae [25] = test: Antibacterial activity against multidrug-resistant Klebsiella pneumoniae BAA2146 assessed as bacterial growth inhibition incubated for 20 to 22 hrs by CLSI based analysis; type: functional; details: time 20-22 hrs
Klebsiella pneumoniae [26] = test: Antibacterial activity against multidrug-resistant Klebsiella pneumoniae BAA2473 assessed as bacterial growth inhibition incubated for 20 to 22 hrs by CLSI based analysis; type: functional; details: time 20-22 hrs
Klebsiella pneumoniae [27] = test: Antibacterial activity against multidrug-resistant Klebsiella pneumoniae R1525 assessed as bacterial growth inhibition incubated for 20 to 22 hrs by CLSI based analysis; type: functional; details: time 20-22 hrs
Pseudomonas aeruginosa [28] = test: Antibacterial activity against multidrug-resistant Pseudomonas aeruginosa PAO1 assessed as bacterial growth inhibition incubated for 20 to 22 hrs by CLSI based analysis; type: functional; details: time 20-22 hrs
Pseudomonas aeruginosa [29] = test: Antibacterial activity against multidrug-resistant Pseudomonas aeruginosa PAO750 assessed as bacterial growth inhibition incubated for 20 to 22 hrs by CLSI based analysis; type: functional; details: time 20-22 hrs
Enterobacter cloacae = test: Antibacterial activity against multidrug-resistant Enterobacter cloacae BAA2341 assessed as bacterial growth inhibition incubated for 20 to 22 hrs by CLSI based analysis; type: functional; details: time 20-22 hrs
Proteus mirabilis = test: Antibacterial activity against multidrug-resistant Proteus mirabilis ATCC 7002 assessed as bacterial growth inhibition incubated for 20 to 22 hrs by CLSI based analysis; type: functional; details: time 20-22 hrs
Citrobacter freundii = test: Antibacterial activity against multidrug-resistant Citrobacter freundii ATCC 8090 assessed as bacterial growth inhibition incubated for 20 to 22 hrs by CLSI based analysis; type: functional; details: time 20-22 hrs
Providencia stuartii = test: Antibacterial activity against multidrug-resistant Providencia stuartii ATCC 49809 assessed as bacterial growth inhibition incubated for 20 to 22 hrs by CLSI based analysis; type: functional; details: time 20-22 hrs
Acinetobacter baumannii [30] = test: Antibacterial activity against multidrug-resistant Acinetobacter baumannii R835 assessed as bacterial growth inhibition incubated for 20 to 22 hrs by CLSI based analysis; type: functional; details: time 20-22 hrs
Acinetobacter baumannii [31] = test: Antibacterial activity against multidrug-resistant Acinetobacter baumannii R831 assessed as bacterial growth inhibition incubated for 20 to 22 hrs by CLSI based analysis; type: functional; details: time 20-22 hrs

Work on `CO[C@@H](CNC(=O)[C@H](NC(=O)[C@H](O)[C@H](C)O)[C@H](O)c1cncn1C)[C@H](O)[C@H](O)C(=O)N(C)[C@@H](Cc1ccccc1)C(=O)NCC(=O)N[C@H](C(=O)N[C@@H](CO)C(=O)N[C@H](C(=O)N[C@H](C(=O)N[C@@H](CO)C(=O)N[C@@H](CCC(=O)NCc1cc(=O)c(O)cn1O)C(=O)O)C(C)(C)C)C(C)(C)O)C(C)(C)O` yielded a remaining at 4 h [1] of 81%, a remaining at 4 h [2] of 86% and a remaining at 1 h [3] of 91%. It also gave a remaining at 1 h [4] of 92%, an Activity (Escherichia coli [5]) of -3.8 log10CFU and an MIC (Escherichia coli [6]) of less than 0.01 µg/mL. For the same compound, the MIC (Escherichia coli [7]) was 0.12 µg/mL, the MIC (Klebsiella pneumoniae [8]) was 0.06 µg/mL and the MIC (Klebsiella pneumoniae [9]) was greater than 32 µg/mL. For the same compound, the MIC (Acinetobacter baumannii [10]) was 0.25 µg/mL, the Activity (Escherichia coli [11]) was “Active” and the Activity (Klebsiella pneumoniae [12]) was “Active”. The Activity (Klebsiella pneumoniae [13]) was “Active”.
Compound `CO[C@@H](CNC(=O)[C@H](NC(=O)[C@H](O)[C@H](C)O)[C@H](O)c1cncn1C)[C@H](O)[C@H](O)C(=O)N(C)[C@@H](Cc1ccc(F)cc1)C(=O)NCC(=O)N[C@H](C(=O)N[C@@H](CO)C(=O)N[C@H](C(=O)N[C@H](C(=O)N[C@@H](CO)C(=O)O)C(C)(C)C)C(C)(C)O)C(C)(C)O` has a remaining at 4 h [1] of 109%, a remaining at 4 h [2] of 84% and a remaining at 1 h [3] of 89%. For the same compound, the remaining at 1 h [4] was 109%, the MIC (Escherichia coli [14]) was 0.5 µg/mL and the MIC (Klebsiella pneumoniae [15]) was 0.5 µg/mL. It also gave an MIC (Acinetobacter baumannii [16]) greater than 32 µg/mL.
Compound `CO[C@@H](CNC(=O)[C@H](NC(=O)[C@H](O)[C@H](C)O)[C@H](O)c1cncn1C)[C@H](O)[C@H](O)C(=O)N(C)[C@@H](Cc1ccccc1)C(=O)NCC(=O)N[C@H](C(=O)N[C@@H](C)C(=O)N[C@H](C(=O)N[C@@H](CC(C)C)C(=O)N[C@@H](CO)C(=O)O)C(C)(C)O)C(C)(C)O` has an MIC (Escherichia coli [14]) of 4 µg/mL, an MIC (Klebsiella pneumoniae [15]) greater than 32 µg/mL and an MIC (Acinetobacter baumannii [16]) greater than 32 µg/mL.
In the case of `CC[C@H](C)[C@H](NC(=O)[C@@H](NC(=O)[C@H](CO)NC(=O)[C@@H](NC(=O)CNC(=O)[C@H](Cc1ccccc1)N(C)C(=O)[C@@H](O)[C@@H](O)[C@H](CNC(=O)[C@H](NC(=O)[C@H](O)[C@H](C)O)[C@H](O)c1cncn1C)OC)C(C)(C)O)C(C)(C)O)C(=O)N[C@@H](CO)C(=O)O`, the remaining at 4 h [1] is reported as 11%, the remaining at 4 h [2] is reported as 13% and the remaining at 1 h [3] is reported as 35%. It also gave a remaining at 1 h [4] of 20%, an MIC (Escherichia coli [14]) of 4 µg/mL and an MIC (Klebsiella pneumoniae [15]) of 16 µg/mL. The MIC (Acinetobacter baumannii [16]) was greater than 32 µg/mL and the Activity (Escherichia coli [17]) was -1.9 log10CFU.
Work on `CO[C@@H](CNC(=O)[C@H](NC(=O)[C@H](O)[C@H](C)O)[C@H](O)c1cncn1C)[C@H](O)[C@H](O)C(=O)N(C)[C@@H](Cc1ccccc1)C(=O)NCC(=O)N[C@H](C(=O)N[C@@H](CO)C(=O)N[C@H](C(=O)N[C@H](C(=O)N[C@@H](CCC(=O)NCc1cc(=O)c(O)cn1O)C(=O)O)C(C)(C)C)C(C)(C)O)C(C)(C)O` yielded a remaining at 4 h [1] of 103%, a remaining at 4 h [2] of 99% and a remaining at 1 h [3] of 100%. The remaining at 1 h [4] was 97%, the Activity (Escherichia coli [5]) was -3.2 log10CFU and the MIC (Escherichia coli [6]) was 0.01 µg/mL. It also gave an MIC (Escherichia coli [7]) of 0.12 µg/mL, an MIC (Klebsiella pneumoniae [8]) of 0.25 µg/mL and an MIC (Klebsiella pneumoniae [9]) greater than 32 µg/mL. The MIC (Acinetobacter baumannii [10]) was 0.5 µg/mL, the Activity (Escherichia coli [11]) was “Active” and the Activity (Klebsiella pneumoniae [12]) was “Active”. The Activity (Klebsiella pneumoniae [13]) was “Active”.
For `C[C@@H](O)[C@H]1C(=O)N2C(C(=O)O)=C(SCCNC=N)C[C@H]12` [IMIPENEM ANHYDROUS], the MIC (Escherichia coli [18]) was 0.25 µg/mL (≈ 0.835 µM), the MIC (Escherichia coli [19]) was greater than 2 µg/mL and the MIC (Escherichia coli [20]) was no more than 0.015 µg/mL. For the same compound, the MIC (Escherichia coli [21]) was no more than 0.015 µg/mL, the MIC (Escherichia coli [22]) was no more than 0.25 µg/mL and the MIC (Klebsiella pneumoniae [23]) was 16 µg/mL (≈ 53.4 µM). For the same compound, the MIC (Klebsiella pneumoniae [24]) was 16 µg/mL (≈ 53.4 µM), the MIC (Klebsiella pneumoniae [25]) was greater than 16 µg/mL and the MIC (Klebsiella pneumoniae [26]) was 1 µg/mL (≈ 3.34 µM). For the same compound, the MIC (Klebsiella pneumoniae [27]) was greater than 64 µg/mL, the MIC (Pseudomonas aeruginosa [28]) was 2 µg/mL (≈ 6.68 µM) and the MIC (Pseudomonas aeruginosa [29]) was 1 µg/mL (≈ 3.34 µM). For the same compound, the MIC (Enterobacter cloacae) was greater than 64 µg/mL, the MIC (Proteus mirabilis) was 1 µg/mL (≈ 3.34 µM) and the MIC (Citrobacter freundii) was 1 µg/mL (≈ 3.34 µM). For the same compound, the MIC (Providencia stuartii) was less than 0.125 µg/mL, the MIC (Acinetobacter baumannii [30]) was greater than 1 µg/mL and the MIC (Acinetobacter baumannii [31]) was greater than 64 µg/mL.

From ChEMBL document CHEMBL5356971, “Optimization of the Antibacterial Spectrum and the Developability Profile of the Novel-Class Natural Product Corramycin” (J Med Chem, 2023)
